Results from patent US20240246941A1, “SUBSTITUTED 4-(3-AMINOPROP-1-YL)AMINOQUINOLINE ANALOGS AS MODULATORS OF MELANOMA-ASSOCIATED ANTIGEN 11 UBIQUITIN LIGASE” (ST. JUDE CHILDREN'S RESEARCH HOSPITAL, INC., priority 2020, published 2024).

Molecular target: MAGE-A11:PCF11 (Homo sapiens (Human), UniProt P43364)
Assay: TR-FRET single point screening at 15 μM
Format: binding
Set-up: unit not given here
Method in brief: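 Competition TR-FRET: compounds at final 15 μM mixed with 200 nM FAM-PCF11_4, 5 nM GST-MAGEA11 and 5 nM Tb-anti-GST in Tris pH 7.5/MgCl2/BSA/DTT buffer, room temperature, 90 min. Emission ratio 520/490 nm (340 nm excitation) expressed as % inhibition relative to positive and negative controls.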

[1] = single point TR-FRET screening at 15 μM against MAGE-A11:PCF11
[2] = single point TR-FRET screening of quinoline compounds against MAGE-A11:PCF11, 15 μM

Sequence of MAGE-A11:PCF11 (P43364 218-429): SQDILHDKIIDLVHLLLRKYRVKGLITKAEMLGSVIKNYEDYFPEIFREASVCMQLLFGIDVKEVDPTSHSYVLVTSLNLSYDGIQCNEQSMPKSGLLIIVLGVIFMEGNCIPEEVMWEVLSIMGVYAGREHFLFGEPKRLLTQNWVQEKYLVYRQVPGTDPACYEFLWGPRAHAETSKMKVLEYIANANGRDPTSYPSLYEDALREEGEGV

Row | SMILES | TR-FRET signal [1] | TR-FRET signal [2]
1 | CCCN(CCCNc1c2ccc(Cl)cc2nc2ccc(OC)cc12)Cc1cccc(C#N)c1 [SJ000522739] | −94.54 | 
2 | CCCN(CCCNc1c2ccc(Cl)cc2nc2ccc(OC)cc12)Cc1ccc(-c2ccccc2)cc1 [SJ000522740] |  | −74.01
3 | CN(C)c1ccc(CN(CCCNc2ccnc3cc(Cl)ccc23)Cc2ccccc2)cc1 [SJ000522741] |  | 14.76
4 | COc1ccc(CN(CCCNc2ccnc3cc(Cl)ccc23)Cc2ccccc2)cc1OC [SJ000522742] |  | −0.5383
5 | CCCN(CCCNc1ccnc2cc(Cl)ccc12)Cc1ccccn1 [SJ000522743] |  | 1.313
6 | CCCN(CCCNc1ccnc2cc(Cl)ccc12)Cc1ccsc1 [SJ000522744] |  | 7.824
7 | CCCN(CCCNc1ccnc2cc(Cl)ccc12)Cc1ccccc1C(F)(F)F [SJ000522745] |  | −38.03
8 | CCCN(CCCNc1ccnc2cc(Cl)ccc12)Cc1ccc2[nH]ccc2c1 [SJ000522746] |  | 96.84
9 | CCCN(CCCNc1ccnc2cc(Cl)ccc12)Cc1ccccc1N [SJ000522747] |  | 15.43
10 | CCCN(CCCNc1ccnc2cc(Cl)ccc12)Cc1c(F)c(F)c(F)c(F)c1F [SJ000522748] |  | 19.87
11 | CCCN(CCCNc1ccnc2cc(Cl)ccc12)Cc1c(C)cc(C)cc1C [SJ000522749] |  | 35.43
12 | CCCN(CCCNc1ccnc2cc(Cl)ccc12)Cc1ccc([N+](=O)[O-])s1 [SJ000522750] |  | 9.134
13 | CCCN(CCCNc1ccnc2cc(Cl)ccc12)CC1CCCCC1 [SJ000522751] |  | 15.63
14 | CCCN(CCCNc1ccnc2cc(Cl)ccc12)CC(CC)CC [SJ000522752] |  | 14.17
15 | CCCN(CCCNc1ccnc2cc(Cl)ccc12)Cc1ccc2c(c1)OCO2 [SJ000522753] |  | 18.75
16 | CCCCCN(CCC)CCCNc1ccnc2cc(Cl)ccc12 [SJ000522754] |  | 16.29
17 | CCCN(CCCNc1ccnc2cc(Cl)ccc12)Cc1c(C)n(C)n(-c2ccccc2)c1=O [SJ000522755] |  | 13.64
18 | CCCN(CCCNc1ccnc2cc(Cl)ccc12)Cc1ccc(OC)cc1 [SJ000522756] |  | 19.14
19 | CCCN(CCCNc1ccnc2cc(Cl)ccc12)Cc1ccccc1F [SJ000522757] |  | 21.99
20 | CCCN(CCCNc1ccnc2cc(Cl)ccc12)Cc1cccc(F)c1 [SJ000522758] |  | 27.42
21 | CCCN(CCCNc1ccnc2cc(Cl)ccc12)Cc1ccc(F)cc1 [SJ000522759] |  | 20.79
22 | CCCN(CCCNc1ccnc2cc(Cl)ccc12)Cc1cc2ccccc2nc1Cl [SJ000522760] |  | 12.8
23 | CCCN(CCCNc1ccnc2cc(Cl)ccc12)Cc1ccc(Cl)c([N+](=O)[O-])c1 [SJ000522761] |  | 16.95
24 | CCCN(CCCNc1ccnc2cc(Cl)ccc12)Cc1c2ccccc2cc2ccccc12 [SJ000522762] |  | 15.49
25 | CCCN(CCCNc1ccnc2cc(Cl)ccc12)Cc1cccc(C#N)c1 [SJ000522763] |  | 12.91
26 | COc1ccc2nc3cc(Cl)ccc3c(NCCCNCc3cccc(C)c3)c2c1 [SJ000522956] |  | −7.089

Row | SMILES | TR-FRET signal [1] | TR-FRET signal [2]
27 | COC(=O)c1ccc(CNCCCNc2c3ccc(Cl)cc3nc3ccc(OC)cc23)cc1 [SJ000522957] | −133 | 
28 | COc1ccc2nc3cc(Cl)ccc3c(NCCCNCc3ccc(Cl)cc3Cl)c2c1 [SJ000522958] | −97.83 | 
29 | COc1ccc2nc3cc(Cl)ccc3c(NCCCNCc3ccc(-c4cccc(Cl)c4)o3)c2c1 [SJ000522959] |  | −47.42
30 | COc1ccc2nc3cc(Cl)ccc3c(NCCCNCc3c(Cl)ccc(Cl)c3Cl)c2c1 [SJ000522960] |  | −81.49
31 | CCCN(CCCNc1c2ccc(Cl)cc2nc2ccc(OC)cc12)Cc1ccccc1OC(F)(F)F [SJ000522961] |  | 22.69
32 | CCCN(CCCNc1c2ccc(Cl)cc2nc2ccc(OC)cc12)Cc1cc2ccccc2s1 [SJ000522962] |  | −21.58
33 | CCCN(CCCNc1c2ccc(Cl)cc2nc2ccc(OC)cc12)Cc1ccc(OC)c(F)c1 [SJ000522963] | −177.5 | 
34 | CCCN(CCCNc1c2ccc(Cl)cc2nc2ccc(OC)cc12)Cc1cn(C)c2ccccc12 [SJ000522964] | −162.2 | 
35 | CCCN(CCCNc1c2ccc(Cl)cc2nc2ccc(OC)cc12)Cc1cc(OC)ccc1F [SJ000522965] |  | −81.24
36 | CCCN(CCCNc1c2ccc(Cl)cc2nc2ccc(OC)cc12)Cc1nc(C)cs1 [SJ000522966] |  | −82.15
37 | CCCN(CCCNc1c2ccc(Cl)cc2nc2ccc(OC)cc12)Cc1cccc(OC(F)(F)F)c1 [SJ000522967] |  | 14.48
38 | CCCN(CCCNc1c2ccc(Cl)cc2nc2ccc(OC)cc12)Cc1c(F)cccc1C(F)(F)F [SJ000522968] |  | 23.09
39 | CCCN(CCCNc1c2ccc(Cl)cc2nc2ccc(OC)cc12)Cc1nc2ccccc2s1 [SJ000522969] |  | −68.77
40 | CCCN(CCCNc1c2ccc(Cl)cc2nc2ccc(OC)cc12)Cc1csc2ccccc12 [SJ000522970] |  | −51.69
41 | CCCCN(CCC)CCCNc1c2ccc(Cl)cc2nc2ccc(OC)cc12 [SJ000522971] | −286.9 | 
42 | CCCN(CCCNc1c2ccc(Cl)cc2nc2ccc(OC)cc12)Cc1ccc(CC)cc1 [SJ000522972] | −105.1 | 
43 | CCCN(CCCNc1c2ccc(Cl)cc2nc2ccc(OC)cc12)Cc1nccn1C [SJ000522973] | −159.9 | 
44 | CCCN(CCCNc1c2ccc(Cl)cc2nc2ccc(OC)cc12)Cc1ccc(Cl)c(C(F)(F)F)c1 [SJ000522974] |  | 16.36
45 | CCCN(CCCNc1c2ccc(Cl)cc2nc2ccc(OC)cc12)Cc1cncc(Br)c1 [SJ000522975] |  | −89.08
46 | CCCN(CCCNc1c2ccc(Cl)cc2nc2ccc(OC)cc12)Cc1scnc1C [SJ000522976] | −127 | 
47 | CCCN(CCCNc1c2ccc(Cl)cc2nc2ccc(OC)cc12)Cc1cccnc1Br [SJ000522977] |  | 0.2567
48 | CCCN(CCCNc1c2ccc(Cl)cc2nc2ccc(OC)cc12)Cc1c[nH]c2ccccc12 [SJ000522978] | −166.2 | 
49 | CCCN(CCCNc1c2ccc(Cl)cc2nc2ccc(OC)cc12)Cc1cccc2c1OCO2 [SJ000522979] | −108 | 
50 | CCCN(CCCNc1c2ccc(Cl)cc2nc2ccc(OC)cc12)Cc1cnn(C)c1 [SJ000522980] | −276.6 | 
51 | CCCN(CCCNc1c2ccc(Cl)cc2nc2ccc(OC)cc12)CCOCc1ccccc1 [SJ000522981] | −212.4 | 
52 | CCCN(CCCNc1c2ccc(Cl)cc2nc2ccc(OC)cc12)Cc1cc(F)cc(F)c1O [SJ000522982] |  | 2.045

Row | SMILES | TR-FRET signal [1] | TR-FRET signal [2]
53 | CCCN(CCCNc1c2ccc(Cl)cc2nc2ccc(OC)cc12)CCC(C)(C)C [SJ000522983] | −233.7 | 
54 | CCCN(CCCNc1c2ccc(Cl)cc2nc2ccc(OC)cc12)Cc1cc(OC(F)(F)F)ccc1OC [SJ000522984] |  | −36.71
55 | CCCN(CCCNc1c2ccc(Cl)cc2nc2ccc(OC)cc12)Cc1cc(C(F)(F)F)ccc1OC [SJ000522985] |  | −46.02
56 | CCCN(CCCNc1c2ccc(Cl)cc2nc2ccc(OC)cc12)Cc1cccc(C(F)(F)F)c1 [SJ000522986] |  | 16.15
57 | CCCN(CCCNc1c2ccc(Cl)cc2nc2ccc(OC)cc12)Cc1cccn1C [SJ000522987] | −302.6 | 
58 | CCCN(CCCNc1c2ccc(Cl)cc2nc2ccc(OC)cc12)Cc1nccs1 [SJ000522988] | −117.5 | 
59 | CCCN(CCCNc1c2ccc(Cl)cc2nc2ccc(OC)cc12)Cc1cc(Br)cs1 [SJ000522989] |  | −56.7
60 | CCCN(CCCNc1ccnc2cc(Cl)ccc12)Cc1c[nH]c(C)n1 [SJ000522990] |  | 4.828
61 | CCCN(CCCNc1ccnc2cc(Cl)ccc12)Cc1cc2ccccc2o1 [SJ000522991] |  | 9.295
62 | CCCN(CCCNc1ccnc2cc(Cl)ccc12)Cc1c[nH]c2ccc(F)cc12 [SJ000522992] |  | 29.34
63 | CCCN(CCCNc1ccnc2cc(Cl)ccc12)Cc1cc2ccccc2s1 [SJ000522993] |  | 5.864
64 | CCCN(CCCNc1ccnc2cc(Cl)ccc12)Cc1ccc(OC)c(F)c1 [SJ000522994] |  | 15.16
65 | CCCN(CCCNc1ccnc2cc(Cl)ccc12)Cc1cn(C)c2ccccc12 [SJ000522995] |  | −1.532
66 | CCCN(CCCNc1ccnc2cc(Cl)ccc12)Cc1cc(OC)ccc1F [SJ000522996] |  | 26.66
67 | CCCN(CCCNc1ccnc2cc(Cl)ccc12)Cc1nc(C)cs1 [SJ000522997] |  | 3.413
68 | CCCN(CCCNc1ccnc2cc(Cl)ccc12)Cc1ccc(OC(F)(F)F)cc1 [SJ000522999] |  | 22.74
69 | C#Cc1ccccc1CN(CCC)CCCNc1ccnc2cc(Cl)ccc12 [SJ000523000] |  | 12.45
70 | CCCN(CCCNc1ccnc2cc(Cl)ccc12)Cc1ccc(CC)cc1 [SJ000523001] |  | 30.13
71 | CCCN(CCCNc1ccnc2cc(Cl)ccc12)Cc1nccn1C [SJ000523002] |  | 6.351
72 | CCCN(CCCNc1ccnc2cc(Cl)ccc12)Cc1cncc(Br)c1 [SJ000523004] |  | 4.828
73 | CCCN(CCCNc1ccnc2cc(Cl)ccc12)Cc1scnc1C [SJ000523005] |  | 11.85
74 | CCCN(CCCNc1ccnc2cc(Cl)ccc12)Cc1cccnc1Br [SJ000523006] |  | 13.31
75 | CCCN(CCCNc1ccnc2cc(Cl)ccc12)Cc1c[nH]c2ccccc12 [SJ000523007] |  | 26.23
76 | CCCN(CCCNc1ccnc2cc(Cl)ccc12)Cc1ncc[nH]1 [SJ000523008] |  | 4.165
77 | CCCN(CCCNc1ccnc2cc(Cl)ccc12)Cc1cnn(C)c1 [SJ000523009] |  | 10.06
78 | CCCN(CCCNc1ccnc2cc(Cl)ccc12)Cc1[nH]cnc1C [SJ000523010] |  | 12.05
